Patent publication US20230302071A1, “ANTIDEPRESSANT COMPOSITION CONTAINING PLEUROTUS ERYNGII EXTRACT AS ACTIVE INGREDIENT” (KOREA UNIVERSITY RESEARCH AND BUSINESS FOUNDATION, priority 2020, published 2023)

Legend:
[1] = system: serotonin receptor-mediated signaling in AGS cell line; assay: Serotonin receptor-mediated signaling in AGS cell line by Western blotting (pErk, pJNK); assay type: cell-based, human; conditions: FIG. 4
Description: Whether the fractions of the Pleurotus eryngii extract according to the present invention were involved in serotonin receptor-mediated signaling by treating an AGS cell line known to overexpress serotonin receptors with the fractions of the Pleurotus eryngii extract according to the present invention was evaluated using Western blotting. Here, an anti-pERK antibody, anti-Erk antibody, anti-pJNK antibody, anti-JNK antibody, and anti-α Tubulin antibody were used for western blotting.

[2] = system: mice; assay: Forced swimming test (FST), immobility time; assay type: in vivo; conditions: intraperitoneal, each sample 20 mg/kg, 30 minutes before test, 4-minute period, FIG. 5
Description: In order to verify whether the fractions of the Pleurotus eryngii extract according to the present invention actually have antidepressant efficacy, a forced swimming test was performed using experimental animals. The antidepressant efficacy was determined by measuring the immobility time during a forced swimming test, and the less the immobility time, the greater the antidepressant efficacy. To this end, mice were intraperitoneally injected with each of the ethanol extract of Pleurotus eryngii according to the present invention and the primary fraction and the secondary fraction of the ethanol extract, after which the immobility time during a forced swimming test was measured. Each sample was injected in an amount of 20 mg/kg into experimental mice. Also, a Prozac-administered group was used as a positive control. Four mice (n=4) were intraperitoneally injected with each sample and then allowed to stand for 30 minutes, after which the mice were submerged in water for 6 minutes and then washed for a while, water in the water tank was exchanged, and the mice were placed again in the water tank for 4 minutes to conduct this experiment. Statistical processing was performed by measuring the immobility time during the 4-minute experimental period.

Compound	expression of phosphorylated pErk [1]	expression of phosphorylated pJNK [1]	reduction in immobility time compared to negative control [2] [%]
NCCc1c[nH]c2ccc(O)cc12 [serotonin]	increased	increased	–
CNCCC(Oc1ccc(C(F)(F)F)cc1)c1ccccc1 (stereo not drawn) [Prozac]	–	–	24
